Data from patent US10899737B2, “Piperazine carbamates and methods of making and using same” (Lundbeck La Jolla Research Center, Inc., priority 2016, dated 2021).

Key:
[1] = target: T1, ABHD6 (Homo sapiens, UniProt Q9BV23); test: In vitro competitive activity-based protein profiling (human), ABHD6; assay type: biochemical; conditions: human PC3
T1 construct: Proteomes (human prefrontal cortex or cell membrane fractions); endogenous in cells; human prefrontal cortex
T1 sequence (Q9BV23 1-337): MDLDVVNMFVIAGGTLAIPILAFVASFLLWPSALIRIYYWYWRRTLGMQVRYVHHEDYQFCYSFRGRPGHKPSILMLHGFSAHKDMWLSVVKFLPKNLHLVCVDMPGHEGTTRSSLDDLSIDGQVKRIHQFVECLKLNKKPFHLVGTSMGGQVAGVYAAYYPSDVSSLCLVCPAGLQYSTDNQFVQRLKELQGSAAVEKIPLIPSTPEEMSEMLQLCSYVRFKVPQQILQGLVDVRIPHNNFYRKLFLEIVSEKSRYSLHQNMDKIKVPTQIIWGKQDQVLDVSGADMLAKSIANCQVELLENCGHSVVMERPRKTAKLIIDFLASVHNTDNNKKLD
Procedure, shortened: (§1)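 Human prefrontal cortex or cell membrane proteomes (1.0-2.0 mg/mL protein) preincubated 30 min at 37° C with inhibitor, then labeled 30 min RT with FP-Rh or JW912 probe. After SDS-PAGE, activity taken from fluorescent band intensity for each enzyme.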

[2] = target: T2, MAGL (Mus musculus, UniProt O35678); test: In vitro competitive activity-based protein profiling (mouse), MAGL; assay type: biochemical; conditions: for inhibition at 1 µM: 1 μM inhibitor, mouse brain membrane fraction or cell lysates, read-out: MAGL % inh. 1 μM (mouse); for IC50: mouse proteome
T2 construct: Proteomes (mouse brain membrane fraction or cell lysates); from tissue; host or cells: mouse brain membrane fraction or cell lysates
T2 sequence (O35678 1-303): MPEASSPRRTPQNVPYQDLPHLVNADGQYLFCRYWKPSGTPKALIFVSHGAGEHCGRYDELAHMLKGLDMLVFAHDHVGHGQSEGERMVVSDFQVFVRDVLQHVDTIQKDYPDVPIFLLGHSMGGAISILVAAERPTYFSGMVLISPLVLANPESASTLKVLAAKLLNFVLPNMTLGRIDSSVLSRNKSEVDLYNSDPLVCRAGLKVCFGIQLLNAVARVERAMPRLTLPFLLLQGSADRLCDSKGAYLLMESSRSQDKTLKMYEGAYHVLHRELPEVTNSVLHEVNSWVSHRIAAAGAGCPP
Procedure, shortened: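 Mouse brain membrane fraction or cell lysate proteomes (50 μL, 1.0 mg/mL total protein) were preincubated with inhibitors at varying concentrations for 30 min at 37° C. FP-Rh (1.0 μL, 50 μM in DMSO) was then added for a further 30 min at 37° C. Samples were quenched with 4× SDS loading buffer and resolved by SDS-PAGE. MAGL activity was quantified from fluorescent gel band intensity using ImageJ 1.49 k.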

[3] = target: T3, MAGL (Homo sapiens, UniProt Q99685); test: In vitro competitive activity-based protein profiling (human), MAGL; assay type: biochemical; conditions: for inhibition at 1 µM: 1 μM inhibitor, human proteome, 30 min preincubation at 37° C, read-out: MAGL % inh. 1 μM (human); for IC50: human PC3
T3 construct: Proteomes (human prefrontal cortex or cell membrane fractions); from tissue
T3 sequence (Q99685 1-303): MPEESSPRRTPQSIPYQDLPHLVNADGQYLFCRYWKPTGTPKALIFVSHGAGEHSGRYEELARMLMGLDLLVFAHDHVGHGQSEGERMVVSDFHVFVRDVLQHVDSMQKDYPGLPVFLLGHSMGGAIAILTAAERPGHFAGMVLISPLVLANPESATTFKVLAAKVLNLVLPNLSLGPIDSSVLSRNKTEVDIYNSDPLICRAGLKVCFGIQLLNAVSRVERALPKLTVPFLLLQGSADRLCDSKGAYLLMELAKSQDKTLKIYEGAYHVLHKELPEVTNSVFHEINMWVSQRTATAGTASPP
Procedure, shortened: as §1

[4] = target: T2, MAGL; test: Mouse brain proteomes from inhibitor treated mice, MAGL inhibition; assay type: in vivo; conditions: 5 mg/kg oral gavage, C57Bl/6J mouse brain, 4 h following administration; read-out: MAGL % inh. 5 mg/kg (mouse)
Protocol: Preparation of Mouse Brain Proteomes from Inhibitor Treated Mice.
Inhibitors were administered to wild-type C57Bl/6J by oral gavage in a vehicle of polyethylene glycol. Each animal was sacrificed 4 h following administration and brain proteomes were prepared and analyzed according to previously established methods (See Niphakis, M. J., et al. (2011) ACS Chem. Neurosci. and Long, J. Z., et al. Nat. Chem. Biol. 5:37-44).

[5] = target: T4, ABHD6 (Mus musculus, UniProt Q8R2Y0); test: In vitro competitive activity-based protein profiling (mouse), ABHD6; assay type: biochemical; conditions: 1 μM inhibitor, mouse brain membrane fraction or cell lysates; read-out: ABHD6 % inh. 1 μM (mouse)
T4 construct: Proteomes (mouse brain membrane fraction or cell lysates); from tissue; host or cells: mouse brain membrane fraction or cell lysates
T4 sequence (Q8R2Y0 1-336): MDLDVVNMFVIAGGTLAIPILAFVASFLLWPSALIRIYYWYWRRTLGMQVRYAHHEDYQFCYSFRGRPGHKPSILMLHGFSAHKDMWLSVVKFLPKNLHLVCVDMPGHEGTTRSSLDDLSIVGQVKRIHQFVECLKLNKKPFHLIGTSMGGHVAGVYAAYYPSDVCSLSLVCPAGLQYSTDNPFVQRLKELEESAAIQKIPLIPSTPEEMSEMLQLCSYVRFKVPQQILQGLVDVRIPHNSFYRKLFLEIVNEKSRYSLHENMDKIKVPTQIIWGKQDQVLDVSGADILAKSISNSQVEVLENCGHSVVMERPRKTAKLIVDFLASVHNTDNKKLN
Procedure, shortened: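 Mouse brain membrane proteome or cell lysate (1.0 mg/mL protein) preincubated 30 min at 37 °C with inhibitor, then labelled 30 min at 37 °C with FP-rhodamine probe. Remaining MAGL and ABHD6 activity quantified by in-gel fluorescence band intensity after SDS-PAGE; values are % inhibition at 1 μM.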

Row | SMILES | IC50 [1] [µM] | inhibition at 1 µM [2] [%] | inhibition at 1 µM [3] [%] | IC50 [3] [µM] | inhibition at 5 mg/kg [4] [%] | inhibition at 1 µM [5] [%] | IC50 [2] [µM]
1 | O=C(O)CN1CCC(c2cc(C(F)(F)F)ccc2CN2CCN(C(=O)OC(C(F)(F)F)C(F)(F)F)CC2)C1 (stereo not drawn) [Example 2, 2-(3-(2-((4-(((1,1,1,3,3,3-Hexafluoropropan-2-yl)oxy)carbonyl)piperazin-1-yl)methyl)-5-(trifluoromethyl)phenyl)pyrrolidin-1-yl)acetic Acid] | 1 to 10 | ≥ 75 | ≥ 75 | ≤ 0.1 | 50 to 75 | 0 to 25 | –
2 | O=C(OC(C(F)(F)F)C(F)(F)F)N1CCN(Cc2ccccc2C2(C(=O)O)CCCC2)CC1 [Example 36, 1-(2-((4-(((1,1,1,3,3,3-hexafluoropropan-2-yl)oxy)carbonyl)piperazin-1-yl)methyl)phenyl)cyclopentane-1-carboxylic acid] | 1 to 10 | ≥ 75 | ≥ 75 | ≤ 0.1 | ≥ 75 | 0 to 25 | –
3 | Cc1cc(C(=O)O)sc1-c1cc(C(F)(F)F)ccc1CN1CCN(C(=O)OC(C(F)(F)F)C(F)(F)F)CC1 [Example 9, 5-(2-((4-(((1,1,1,3,3,3-Hexafluoropropan-2-yl)oxy)carbonyl)piperazin-1-yl)methyl)-5-(trifluoromethyl)phenyl)-4-methylthiophene-2-carboxylic Acid] | 1 to 10 | ≥ 75 | ≥ 75 | ≤ 0.1 | 25 to 50 | 50 to 75 | –
4 | O=C(OC(C(F)(F)F)C(F)(F)F)N1CCN(Cc2ccc(F)cc2C2(C(=O)O)CCCC2)CC1 [Example 40, 1-(5-fluoro-2-((4-(((1,1,1,3,3,3-hexafluoropropan-2-yl)oxy)carbonyl)piperazin-1-yl)methyl)phenyl)cyclopentane-1-carboxylic acid] | 1 to 10 | ≥ 75 | ≥ 75 | ≤ 0.1 | ≥ 75 | 0 to 25 | –
5 | O=C(O)CN1CC2(CCN(c3cc(C(F)(F)F)ccc3CN3CCN(C(=O)OC(C(F)(F)F)C(F)(F)F)CC3)CC2)C1 [Example 21, 2-(7-(2-((4-(((1,1,1,3,3,3-Hexafluoropropan-2-yl)oxy)carbonyl)piperazin-1-yl)methyl)-5-(trifluoromethyl)phenyl)-2,7-diazaspiro[3.5]nonan-2-yl)acetic Acid] | 1 to 10 | ≥ 75 | ≥ 75 | ≤ 0.1 | 0 to 25 | 0 to 25 | ≤ 0.1
6 | O=C(O)[C@@H]1CCCN1C1CCN(c2cc(C(F)(F)F)ccc2CN2CCN(C(=O)OC(C(F)(F)F)C(F)(F)F)CC2)CC1 [Example 64, (1-(2-((4-(((1,1,1,3,3,3-hexafluoropropan-2-yl)oxy)carbonyl)piperazin-1-yl)methyl)-5-(trifluoromethyl)phenyl)piperidin-4-yl)proline] | 1 to 10 | ≥ 75 | ≥ 75 | ≤ 0.1 | 0 to 25 | 50 to 75 | –
7 | O=C(O)C1CCN(c2cc(OC(F)(F)F)ccc2CN2CCN(C(=O)OC(C(F)(F)F)C(F)(F)F)CC2)CC1 [Example 67, 1-(2-((4-(((1,1,1,3,3,3-hexafluoropropan-2-yl)oxy)carbonyl)piperazin-1-yl)methyl)-5-(trifluoromethoxy)phenyl)piperidine-4-carboxylic acid] | 1 to 10 | ≥ 75 | ≥ 75 | ≤ 0.1 | ≥ 75 | 50 to 75 | ≤ 0.1
8 | O=C(O)Cn1ccc(-c2cc(C(F)(F)F)ccc2CN2CCN(C(=O)OC(C(F)(F)F)C(F)(F)F)CC2)n1 [Example 3, 2-(3-(2-((4-(((1,1,1,3,3,3-Hexafluoropropan-2-yl)oxy)carbonyl)piperazin-1-yl)methyl)-5-(trifluoromethyl)phenyl)-1H-pyrazol-1-yl)acetic Acid] | 0.1 to 1 | ≥ 75 | ≥ 75 | ≤ 0.1 | 0 to 25 | ≥ 75 | ≤ 0.1
9 | O=C(O)CN1CCCC12CCN(c1cc(C(F)(F)F)ccc1CN1CCN(C(=O)OC(C(F)(F)F)C(F)(F)F)CC1)CC2 [Example 20, 2-(8-(2-((4-(((1,1,1,3,3,3-Hexafluoropropan-2-yl)oxy)carbonyl)piperazin-1-yl)methyl)-5-(trifluoromethyl)phenyl)-1,8-diazaspiro[4.5]decan-1-yl)acetic Acid] | 1 to 10 | ≥ 75 | ≥ 75 | ≤ 0.1 | 0 to 25 | 0 to 25 | –
10 | O=C(O)c1csc(-c2cc(C(F)(F)F)ccc2CN2CCN(C(=O)OC(C(F)(F)F)C(F)(F)F)CC2)c1 [Example 10, 5-(2-((4-(((1,1,1,3,3,3-Hexafluoropropan-2-yl)oxy)carbonyl)piperazin-1-yl)methyl)-5-(trifluoromethyl)phenyl)thiophene-3-carboxylic Acid] | 1 to 10 | ≥ 75 | ≥ 75 | ≤ 0.1 | 0 to 25 | ≥ 75 | –
11 | O=C(O)CN1CCC2(C1)CN(c1cc(C(F)(F)F)ccc1CN1CCN(C(=O)OC(C(F)(F)F)C(F)(F)F)CC1)C2 [Example 23, 2-(2-(2-((4-(((1,1,1,3,3,3-Hexafluoropropan-2-yl)oxy)carbonyl)piperazin-1-yl)methyl)-5-(trifluoromethyl)phenyl)-2,6-diazaspiro[3.4]octan-6-yl)acetic Acid] | 1 to 10 | ≥ 75 | ≥ 75 | ≤ 0.1 | 0 to 25 | 0 to 25 | –
12 | O=C(O)C1CCN(c2c(CN3CCN(C(=O)OC(C(F)(F)F)C(F)(F)F)CC3)ccc(Cl)c2F)CC1 [Example 62, 1-(3-chloro-2-fluoro-6-((4-(((1,1,1,3,3,3-hexafluoropropan-2-yl)oxy)carbonyl)piperazin-1-yl)methyl)phenyl)piperidine-4-carboxylic acid] | 1 to 10 | ≥ 75 | ≥ 75 | ≤ 0.1 | ≥ 75 | 50 to 75 | –
